Values quoted from earlier work as cited in patent US20070021506A1, “Stress relieving composition” (Ajinomoto Co., Inc., priority 2004, published 2007).
Like-named read-outs stand apart in the source and are kept apart here.

Columns and labels:
5HT-4 receptor = target: T1, 5HT-4 receptor (Rattus norvegicus, UniProt Q62758)
T1 construct: suppressed anxiety disorder of rats induced by a 5HT-4 receptor agonist; from tissue; host or cells: living rats (whole animal; oral L-lysine, s.c. agonist)

benzodiazepine receptor = conditions: Non-patent document 9
5-HT4 receptor = target: T2, 5-HT4 receptor (Cavia porcellus, UniProt O70528); conditions: in vitro
T2 construct: from tissue; host or cells: guinea pig ileum
T2 sequence (O70528 whole entry): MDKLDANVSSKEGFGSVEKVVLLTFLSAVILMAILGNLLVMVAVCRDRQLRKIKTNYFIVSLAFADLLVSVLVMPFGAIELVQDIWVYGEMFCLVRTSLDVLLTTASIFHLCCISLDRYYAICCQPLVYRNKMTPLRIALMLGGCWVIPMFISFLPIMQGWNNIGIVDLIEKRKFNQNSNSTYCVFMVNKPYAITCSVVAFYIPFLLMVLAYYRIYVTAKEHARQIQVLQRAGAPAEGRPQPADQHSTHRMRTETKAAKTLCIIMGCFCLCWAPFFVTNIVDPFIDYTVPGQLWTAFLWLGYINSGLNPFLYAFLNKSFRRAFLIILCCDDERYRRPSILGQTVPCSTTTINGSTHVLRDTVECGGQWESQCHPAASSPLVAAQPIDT

T1 sequence (Q62758 whole entry): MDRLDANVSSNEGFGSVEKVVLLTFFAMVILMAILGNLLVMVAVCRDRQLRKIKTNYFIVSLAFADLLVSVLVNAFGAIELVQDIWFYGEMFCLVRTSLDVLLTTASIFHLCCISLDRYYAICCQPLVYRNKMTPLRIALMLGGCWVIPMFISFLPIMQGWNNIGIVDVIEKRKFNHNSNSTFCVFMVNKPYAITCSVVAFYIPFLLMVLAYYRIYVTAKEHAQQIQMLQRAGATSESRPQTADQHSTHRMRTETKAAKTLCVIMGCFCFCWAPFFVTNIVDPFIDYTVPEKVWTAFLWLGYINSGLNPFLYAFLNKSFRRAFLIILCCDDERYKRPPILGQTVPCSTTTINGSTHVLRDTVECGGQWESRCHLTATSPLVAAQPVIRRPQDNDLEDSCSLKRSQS

**Q.** Which “anxiety disorder of rats induced by a 5HT-4 receptor agonist” value (5HT-4 receptor; 1 g/kg, p.o., agonist 3.0 mmol/l s.c.) does the source give for `NCCCC[C@H](N)C(=O)O` [L-lysine] here?
**A.** significantly suppressed

**Q.** What about the “action at 5HT-4 receptor” value (5HT-4 receptor; rat, in vivo) of the same compound?
**A.** partially serves as a 5HT-4 receptor antagonist

**Q.** What about the “action at benzodiazepine receptor” value (benzodiazepine receptor) of the same compound?
**A.** benzodiazepine receptor agonist

**Q.** And the “5-HT-induced contraction of the guinea pig ileum” value (5-HT4 receptor; 0.07 mmol/dl, P<0.05)?
**A.** blocked

**Q.** What about the “5-HT-induced contraction of the guinea pig ileum” value (5-HT4 receptor; 0.7 mmol/dl, P<0.01) of the same compound?
**A.** blocked

**Q.** Which mood (normal subjects exposed to mental stress) does the source give for `N[C@@H](Cc1ccc(O)cc1)C(=O)O` [Tyr, tyrosine] here?
**A.** improved the mood significantly

**Q.** And the “effect in terms of mood criterion” value (patients with depression)?
**A.** a significant effect in terms of mood criterion was not observed

**Q.** For `N[C@@H](Cc1c[nH]c2ccccc12)C(=O)O` [Trp, tryptophan], which mood enhancement effect (clinical study conducted recently (Non-patent document 3)) is on record?
**A.** could not be fully supported

**Q.** And the stress-induced mood (comparative clinical study, taken alone or together with carbohydrates)?
**A.** relieved
